The subject of one series is OSCC cell lines. Nature of the series: shRNA-mediated CD36 depletion in orthotopic OSCC xenografts. Type of series: in vivo, mouse. To be noted: FaDu cells. As to the method:
NOD scid gamma (NSG) (NOD.Cg-Prkdc^scid Il2rg^tm1Wjl/SzJ) mice were purchased from Charles River and crossed in-house. All mice were housed under a regimen of 12 h light/12 h dark cycles and SPF conditions, and all procedures were evaluated and approved by the CEEA (Ethical Committee for Animal Experimentation) from the Government of Catalunya. For establishing patient-derived tumour cells, tumours were implanted subcutaneously into NOD scid gamma mice immediately after tumour resection from the patient. Once the tumours had grown, they were collected, disaggregated, and tumour cells were FACS sorted and cultured as described below. For 5-bromo-2-deoxyuridine (BrdU) labelling experiments, mice were injected intraperitoneally with a single dose of 100 μg g^−1 BrdU (Invitrogen) and then analysed at 24 h. SCC intra-tongue injection was performed as previously described (Oskarsson et al., 2014; Nieman et al., 2011). […] Mice were monitored for the luciferase bioluminescent signal immediately after injection (T0) and once weekly thereafter with a Xenogen IVIS Imaging System-100 (Caliper Life Sciences). […] Data was quantified with the Living Image software version 4.4 (Caliper Life Sciences). Quantifications were calculated with unsaturated pixels. […]

Another series has as its system OSCC cells. Nature of the series: OSCC cells exposed in culture to palmitic acid, CD36+ cells by flow cytometry. Type of series: cell-based, human. To be noted: 2 days, 0.4 mM palmitic acid. As to the method:
All cells were cultured in a humidified incubator at 37° C. with 5% CO2. SCC-25 (ATCC^R CRL-168™) and patient-derived cells (VDH-00, VDH-01 and VDH-02) were grown in keratinocyte serum-free media (KSFM, GIBCO) supplemented with 5 μg ml^−1 penicillin/streptomycin, 0.025 mg ml^−1 bovine pituitary extract and 0.2 μg ml^−1 of hEGF. JHU-029 cells (The Johns Hopkins University) were grown in RPMI (GIBCO) supplemented with 5 μg ml^−1 penicillin/streptomycin and 10% foetal bovine serum (FBS; GIBCO). FaDu (ATCC^R HTB-43™) and Detroit (ATCC^R CCL138™) cells were grown in EMEM (LONZA) supplemented with 5 μg ml^−1 penicillin/streptomycin and 10% FBS (GIBCO). MCF-7 cells (ATCC^r HTB-22™) were grown in EMEM (LONZA) supplemented with 5 mg ml^−1 penicillin/streptomycin, 0.01 mg ml^−1 human recombinant insulin and 10% FBS (GIBCO). The 501mel human cell line (kindly provided by Dr. Claudia Wellbrock, Manchester Cancer Research Centre, The University of Manchester, UK) was grown in DMEM supplemented with 5 mg ml^−1 penicillin/streptomycin and 10% FBS (GIBCO). HNACFS (Head and Neck tumour associated fibroblasts) were grown in DMEM supplemented with 5 mg ml^−1 penicillin/streptomycin, 10% FBS (GIBCO) and 1× insulin transferrin selenium G supplement (Invitrogen). OP9 cells were cultured and differentiated to adipocytes as previously described (Wolins et al., 2006). […]
A general note: In flow cytometry, cells or beads pass a laser one at a time.

The next series has as its system SCC25 tumour cells. Nature of the series: Transplants of palmitic acid-treated OSCC cells. To be noted: cells treated in culture before transplant. Type of series: in vivo, mouse. As to the method:
NOD scid gamma (NSG) (NOD.Cg-Prkdc^scid Il2rg^tm1Wjl/SzJ) mice were purchased from Charles River and crossed in-house. All mice were housed under a regimen of 12 h light/12 h dark cycles and SPF conditions, and all procedures were evaluated and approved by the CEEA (Ethical Committee for Animal Experimentation) from the Government of Catalunya. For establishing patient-derived tumour cells, tumours were implanted subcutaneously into NOD scid gamma mice immediately after tumour resection from the patient. Once the tumours had grown, they were collected, disaggregated, and tumour cells were FACS sorted and cultured as described below. For 5-bromo-2-deoxyuridine (BrdU) labelling experiments, mice were injected intraperitoneally with a single dose of 100 μg g^−1 BrdU (Invitrogen) and then analysed at 24 h. SCC intra-tongue injection was performed as previously described (Oskarsson et al., 2014; Nieman et al., 2011). Briefly, mice were anesthetized by intraperitoneal injection with a mixture of 50 mg per kg of ketamine and 0.5 mg per kg of medetomidin, and SCC cells resuspended in 30 μl PBS were injected into each mouse tongue with a BD ultra-fine 6 mm needle. For intravenous cell injection, mice were anesthetized with continuous administration of isofluorane gas and were injected by retro-orbital injection with 100,000 cells in 100 μl PBS. Mice were monitored for the luciferase bioluminescent signal immediately after injection (T0) and once weekly thereafter with a Xenogen IVIS Imaging System-100 (Caliper Life Sciences). Briefly, animals were injected by retro-orbital injection with 50 μl of D-luciferin (Promega) diluted in 1×PBS at 5 mg ml^−1. Continuous administration of isofluorane gas was provided to ensure anesthetizing animals during imaging. Data was quantified with the Living Image software version 4.4 (Caliper Life Sciences). Quantifications were calculated with unsaturated pixels. Color scale minimum and maximum values are shown in pictures.
All cells were cultured in a humidified incubator at 37° C. with 5% CO2. […]

In the case of “shRNACD36 #99: lentiviral shRNA targeting CD36 (Sigma Aldrich), SEQ ID NO: 2 (CCGACGTTAATCTGAAAGGA)”, in the series with OSCC cell lines, the “lung metastasis (ability to colonize the lungs)” value was “absent”.
On to `CCCCCCCCCCCCCCCC(=O)O` [PA, palmitic acid], for which the “percentage of CD36+ cells in culture” value with OSCC cells is “robustly induced”. Further, in the series with SCC25 tumour cells, the “inoculated mice with lung metastasis” value amounted to 10%; the primary tumour growth result is “without any effect”; the “size and frequency of the LN metastasis” value was “significantly boosted”.

The values are drawn from patent publication US11535680B2, “Targeting metastasis stem cells through a fatty acid receptor (CD36)” (FUNDACIÓ INSTITUT DE RECERCA BIOMÈDICA (IRB BARCELONA), priority 2015, dated 2022).
